Three molecules from patent US9132106B2, “Synergistic ophthalmic compositions for disinfecting contact lenses” (Abbott Medical Optics Inc., priority 2013, dated 2015) can be followed below.

In the assay the test system is Candida albicans ATCC 10231. The experiment in a line: Antimicrobial activity, 6 hr log kill of C. albicans. It is filed as cell-based. On the procedure: The test procedure for testing antimicrobial activity against specified test organisms is as follows: A 10-mL aliquot of test sample was transferred into a single polypropylene test tube. Sterile Dulbecco's Phosphate-Buffered Saline with 0.05 w/v % Polysorbate 80 (DPBST) was transferred into a separate polypropylene test tube and used as a control. All samples and control were stored at 20-25° C. throughout the duration of the test. Test cultures of specified test organisms were cultured and prepared in the conventional manner using Saboraud Dextrose Agar (SDA) as the growth medium. The challenge organism inoculum was adjusted to approximately 1×10e7-1×10e8 CFU/mL in DPBST. Fifty μL of culture inoculum was added to 10.0 mL of each test sample and control, so that the final inoculum level was in the range of 1×10e5 to 1×10e6 CFU (colony forming units) per mL of specified test organism. Contact time intervals for testing activity against the specified test organism were typically within 4 or 6 hours, e.g., 15 minutes, 30 minutes, 45 minutes, 1 hour, 2 hours, 4 hours and 6 hours, to remain within the intended product label instructions for maximum contact lens soak time.
Following incubation, the number of surviving organisms was enumerated by serial dilution and culture on SDA medium. An appropriate neutralizing disinfectant medium was used for performing serial dilutions (e.g. Letheen Neutralizing Broth containing 0.5% Polysorbate 80 media—LetheenT80). Additionally, the numbers of colony-forming-units (CFU) were counted and the Log 10 reduction in viable number calculated for test solutions based on the initial time zero challenge inoculum in the control solution.

[1] abbreviates: Table II formula, 6 hour soaking.

In the case of `[H]/N=C(\N/C(=N/[H])NCCCCCCNC(=N)NC(=N)Nc1ccc(Cl)cc1)Nc1ccc(Cl)cc1` [chlorhexidine], the “log kill from chlorhexidine alone in the same formula” value (5.00 ppm chlorhexidine, 6 hours, C. albicans) is listed as “about 0.5 log”. For the same molecule, under setting [1], the “chlorhexidine concentration needed to achieve a 2-log kill against C. albicans (FIG. 2)” value was more than 12 ppm and the “chlorhexidine concentration needed to achieve a 3-log kill against C. albicans (FIG. 2)” value is given as more than 15 ppm.

As to `CCCCC(CC)CNC(=N)NC(=N)NCCCCCCNC(=N)NC(=N)NCC(CC)CCCC` (stereo not drawn) [alexidine], the “log kill from alexidine alone in the same formula” value (1.05 ppm alexidine, 6 hours, C. albicans) was “about 1.4 log”. The “log kill of C. albicans (FIG. 1)” value (alexidine at 1.00 ppm in Table 1 formula, 6 hour soaking) came out at 1.3 log.

Regarding “poly[(dimethyliminio)-2-butene-1,4-diyl chloride], α-[4-[tris(2-hydroxyethyl) ammonio]-2-butenyl]-Ω-[tris(2-hydroxyethyl)ammonio]-dichloride [PQ-1]”, the “effect of PQ-1 on C. albicans (in words)” value (in the presence of 0.65% trisodium citrate dihydrate) is “little effect”.
